One series deals with rodent mast cell. The settings on record: cited from earlier work.
The subject of series [1] is mast cells obtained from bronchoalveolar lavage fluid. To be noted: 100 μM; human trials; cited from earlier work.
A further series concerns human skin mast cells. The settings on record: cited from earlier work.
For series [2] the following is noted: human, in vivo; cited from earlier work.
Series [3] has as its system human conjunctival mast cells. Kind of series: Miller Test: inhibition of anti-IgE-induced histamine release (mast cell stabilization assay). The format is cell-based. To be noted: for inhibition at 10 µM / inhibition at 100 µM: * p < 0.05, Dunnett's t-test (dimaprit only); for inhibition at 1000 µM: * p < 0.05, Dunnett's t-test (both compounds). An excerpt:
While mast cells exist in various tissues and species, there is considerable mast cell heterogeneity within these different sources. Therefore, in order to provide compounds of the present invention which are specific for human conjunctival mast cells, drug compounds need to be tested for inhibition of human conjunctival mast cell degranulation using human conjunctival mast cells. Such efficacy can be determined by using the method described in U.S. Pat. No. 5,360,720 (Miller et al.) and in Miller, et al., "Human conjunctival mast cell responses in vitro to various secretagogues," Ocular Immunology and Inflammation, volume 4, issue 1, pages 39-49 (1996) (the "Miller Test"), the entire contents of the forgoing patent and article are incorporated herein by reference.
The Miller Test is generally performed by the following protocol:
Human conjunctival tissue mast cells are isolated from post-mortem tissue donors obtained within 8 hours of death by various eye banks and transported in Dexsole corneal preservation medium. Tissues are then enzymatically digested by repeated exposure (30 minutes at 37° C.) to collagenase (Type IV) and hyaluronidase (Type I-S) (2 times with 200 U […] each/gram tissue, then 2-4 times with 2000 U each/gram tissue) in Tyrode's buffer containing 0.1% gelatin. Each digestion mixture is filtered over Nitex® cloth (100 µm mesh) and washed with an equal volume of buffer. Filtrates are centrifuged at 825×g (7 mininutes). Pellets are resuspended in buffer then combined for enrichment over a […] Percoll® cushion. The enriched pellet is then washed and resuspended in supplemented RPMI 1640 medium for equilibration at 37° C.
The preparations containing the mast cells are then placed in a culture medium, preferably supplemented RPMI 1640, and allowed to equilibrate at about 30°-37° C. for a minimum of about 40 hours.
After equilibrating for a minimum of about 40 hours, the cells may be harvested from the culture (for example, by gentle flushing utilizing pasteur pipettes), pooled and centrifuged.
Cell pellets may then be resuspended in buffer and viability and mast cell number determined by well known methods. The conjunctival mast cells are now prepared for use in mast cell stabilization assays.
All test drugs are placed into solution immediately prior to use. Generally, each compound is dissolved in Tyrode's buffer containing 0.1% gelatin and diluted to an appropriate concentration.
Cells are harvested from the culture plate and counted for viability (trypan blue exclusion) and mast cell number (toluidine blue O). Mast cells (5000/tube; 1 milliliter ("mL," final volume) are then challenged (37° C.) for 15 minutes with goat-anti-human IgE (10 μg/mL) following treatment (1 or 15 minutes; 37° C.) with test drug or Tyrode's buffer. Total and non-specific release controls are exposed to 0.1% Triton X-100 and goat IgG (10 μg/mL), respectively. The reaction was terminated by centrifugation (500×g, 4° C., 10 minutes). Supernatants are stored at -20° C. until analyzed for histamine content by radioimmunoassay ("RIA").
The IC50 of each compound (concentration at which 50% of the histamine release was inhibited, as compared to control) was then calculated.
The H2 agonists, dimaprit and amthamine, were tested in the Miller Test, as described in Example 1, above. Table I and FIG. 1 illustrate the efficacy of dimaprit and amthamine on the inhibition of histamine release from human conjunctival mast cells.

For the compound `O=C(O)c1cc(=O)c2c(OCC(O)COc3cccc4oc(C(=O)O)cc(=O)c34)cccc2o1` [Disodium cromoglycate], the “inhibition of rodent mast cell degranulation” value with rodent mast cell is “shown to inhibit rodent mast cell degranulation”. Also, the “inhibition of mast cells obtained from bronchoalveolar lavage fluid” value in series [1] is listed as “inhibited mast cells obtained from bronchoalveolar lavage fluid”. The “inhibition of histamine release from human skin mast cells” value with human skin mast cells is on record as “not inhibited at all”. Moreover, in series [2], the “irritation / side effects” value is given as “irritating to some patients”.

In general, inhibition refers to the percentage by which the read-out fell short of the control. Higher therefore signals strong suppression. `Cc1nc(N)sc1CCN` [amthamine] gave an inhibition at 0.1 µM in series [3] (0.1 μM) of 11%. In series [3], this compound displayed an inhibition at 1 µM of 3.6 ± 3.9%, an inhibition at 10 µM of 7.3 ± 6.5%, an inhibition at 100 µM of 9.9 ± 8.6% and an inhibition at 1000 µM of 60.5 ± 6.2%.

In the case of `CN(C)CCCSC(=N)N` [dimaprit], in series [3], the inhibition at 1 µM came to 10.1 ± 4.2%, 10 µM produced 14.4 ± 9.3% inhibition, testing at 100 µM gave an inhibition of 35 ± 3.5% and 1000 µM produced 75.9 ± 3.5% inhibition. Further, the inhibition at 10000 µM in series [3] (10,000 μM, * p < 0.05, Dunnett's t-test) came to 83.6 ± 0.9%.

These data come from US6225332A, “Compositions containing histamine H2 agonists and methods of use in treating allergy and inflammation” (priority 1998, dated 2001).
